The source of these data is patent publication US12655116B2, “Substituted isophthalic acid diamides” (Bayer Aktiengesellschaft, priority 2020, dated 2026).

The subject of experiment [1] is ABUTH. The experiment can be described thus: Pre-emergence herbicidal action against ABUTH. In kind it is in vivo, Abutilon theophrasti. The following applies: for Pre-emergence action against ABUTH (herbicidal activity): 80 g/ha, scored visually after 3 weeks vs untreated controls (100% = plants have died, 0% = like control plants). In a few lines: (§1)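 Sandy loam pots, seeds covered with soil, then surface-treated with WP or EC formulations at 600–800 l/ha water plus 0.2% wetting agent. Greenhouse, 3 weeks. Percent damage vs untreated controls.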

In experiment [2] the test system is AMARE. The experiment can be described thus: Pre-emergence herbicidal action against AMARE. It counts as in vivo, Amaranthus retroflexus. Put shortly:
as §1

Experiment [3] relates to SETVI. Nature of the experiment: Pre-emergence herbicidal action against SETVI. In kind it is in vivo, Setaria viridis. The settings on record: dosage 80 g/ha. Put shortly:
as §1

Experiment [4] deals with STEME. Nature of the experiment: Pre-emergence herbicidal action against STEME. The following applies: dosage 80 g/ha. In kind it is in vivo, Stellaria media. The text has this:
Seeds of monocotyledonous and dicotyledonous weed plants and crop plants are laid out in sandy loam soil in wood-fiber pots and covered with soil. The compounds of the invention, formulated in the form of wettable powders (WP) or as emulsion concentrates (EC), are then applied to the surface of the covering soil in the form of an aqueous suspension or emulsion at a water application rate equivalent to 600 to 800 l/ha, with addition of 0.2% wetting agent. After the treatment, the pots are placed in a greenhouse and kept under good growth conditions for the trial plants. The damage to the test plants is scored visually after a test period of 3 weeks by comparison with untreated controls (herbicidal activity in percent (%): 100% activity=the plants have died, 0% activity=like control plants). […] The tables below illustrate, in an illustrative manner, the post-emergence herbicidal action of the compounds of the invention, the herbicidal activity being stated in percent.

Experiment [5] deals with VIOTR. The experiment can be described thus: Pre-emergence herbicidal action against VIOTR. In kind it is in vivo, Viola tricolor. The settings on record: dosage 80 g/ha. In a few lines: as §1
Experiment [6] deals with DIGSA. The experiment can be described thus: Pre-emergence herbicidal action against DIGSA. It counts as in vivo, Digitaria sanguinalis. In a few lines:
as §1

In experiment [7] the test system is ABUTH. The experiment can be described thus: Post-emergence herbicidal action against ABUTH. The following applies: visual assessment about 3 weeks after treatment vs untreated controls. It counts as in vivo, Abutilon theophrasti. In a few lines: (§2)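 Herbicidal action is a visual percentage rating (0% = as untreated control, 100% = plants dead) made roughly 3 weeks after treatment. Plants were grown in sandy loam in the greenhouse and treated at the one-leaf stage, 2 to 3 weeks post-sowing. Treatment was a foliar spray of wettable-powder or emulsion-concentrate formulations at 600 to 800 l/ha water plus 0.2% wetting agent.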

The test system of experiment [8] is AMARE. The experiment can be described thus: Post-emergence herbicidal action against AMARE. The settings on record: 20 g/ha, visual assessment about 3 weeks after treatment, 100% = plants have died, 0% = like control plants. In kind it is in vivo, Amaranthus retroflexus. Put shortly: as §2
Experiment [9] deals with ECHCG. Nature of the experiment: Post-emergence herbicidal action against ECHCG. It counts as in vivo, Echinochloa crus-galli. The following applies: dosage 20 g/ha. In a few lines: as §2
Experiment [10] deals with SETVI. The experiment can be described thus: Post-emergence herbicidal action against SETVI. In kind it is in vivo, Setaria viridis. Put shortly:
as §2

The test system of experiment [11] is STEME. Nature of the experiment: Post-emergence herbicidal action against STEME. It counts as in vivo, Stellaria media. The settings on record: 20 g/ha. The protocol: Seeds of monocotyledonous and dicotyledonous weed and crop plants are laid out in sandy loam soil in wood-fiber pots, covered with soil and cultivated in a greenhouse under good growth conditions. 2 to 3 weeks after sowing, the test plants are treated at the one-leaf stage. The compounds of the invention, formulated in the form of wettable powders (WP) or as emulsion concentrates (EC), are then sprayed onto the green parts of the plants in the form of an aqueous suspension or emulsion at a water application rate equivalent to 600 to 800 l/ha, with addition of 0.2% wetting agent. After the test plants have been left to stand in the greenhouse under optimal growth conditions for about 3 weeks, the action of the preparations is assessed visually in comparison to untreated controls (herbicidal action in percent (%): 100% activity=the plants have died, 0% activity=like control plants). […] The tables below illustrate, in an illustrative manner, the post-emergence herbicidal action of the compounds of the invention, the herbicidal activity being stated in percent.

The test system of experiment [12] is DIGSA. Nature of the experiment: Post-emergence herbicidal action against DIGSA. The settings on record: 20 g/ha. It counts as in vivo, Digitaria sanguinalis. Put shortly: as §2
Experiment [13] concerns ECHCG. Nature of the experiment: Pre-emergence herbicidal action against ECHCG. It counts as in vivo, Echinochloa crus-galli. The settings on record: 80 g/ha. Put shortly:
as §1

The subject of experiment [14] is MATIN. The experiment can be described thus: Pre-emergence herbicidal action against MATIN. It counts as in vivo, Matricaria inodora. In a few lines:
as §1

Setting [15] is: 20 g/ha, scored visually after 3 weeks vs untreated controls, 100% = plants have died, 0% = like control plants.
[16] abbreviates: 80 g/ha, scored visually after 3 weeks vs untreated controls (100% = plants have died, 0% = like control plants).

With `NC(=O)c1c(C(F)(F)F)ccc(C(=O)Nc2nnco2)c1Cl` [Example 5-253], the “Pre-emergence action against ABUTH (herbicidal activity)” value in experiment [1] is 100%. For the same molecule, the “Pre-emergence action against ABUTH (herbicidal activity in percent)” value in experiment [1] (dosage 20 g/ha, scored visually after 3 weeks vs untreated controls, 100% = plants have died, 0% = like control plants) is listed as 90%. The “Pre-emergence action against AMARE in %” value in experiment [2] (setting [15]) and in [2] (setting [16]) was 100% each time. Also, the “Pre-emergence action against SETVI in %” value in experiment [3] is recorded as 80%. The “Pre-emergence action against STEME in %” value in experiment [4] is 90%. Moreover, the “Pre-emergence action against VIOTR in %” value in experiment [5] stood at 90%. Further, the entries for the “Pre-emergence action against DIGSA in %” value in [6] (dosage 20 g/ha) and in [6] (dosage 80 g/ha) were 80% and 90%, respectively. Also, the “Post-emergence action against ABUTH in %” value in experiment [7] (dosage 5 g/ha) and in [7] (dosage 20 g/ha) was 90% in each case. Also, in experiment [8], the “Post-emergence action at 20 g/ha against AMARE in %” value was 80%. The “Post-emergence action against ECHCG in %” value in [9] was 80%. For the same molecule, the “Post-emergence action against SETVI in %” value in [10] (dosage 5 g/ha) and in [10] (dosage 20 g/ha) was 80% in each case. For the same molecule, the “Post-emergence action against STEME in %” value in experiment [11] amounted to 80%. Also, the “Post-emergence action against DIGSA” value in experiment [12] came to 80%.

In the case of `Cc1nnc(NC(=O)c2ccc(C(F)F)c(C(=O)NC3CC3)c2C)o1` [Example 6-33], the “Pre-emergence action against ABUTH (herbicidal activity)” value in [1] was determined as 90%. Also, the entries for the “Pre-emergence action against AMARE in %” value in experiment [2] (setting [15]) and in experiment [2] (setting [16]) were 90% and 100%, respectively. The “Pre-emergence action against ECHCG in %” value in experiment [13] was determined as 100%. For the same molecule, the “Pre-emergence action against MATIN in %” value was 80% in experiment [14] (dosage 20 g/ha) and 90% in [14] (dosage 80 g/ha). For the same molecule, in experiment [3], the “Pre-emergence action against SETVI in %” value is 100%. In [5], the “Pre-emergence action against VIOTR in %” value is on record as 100%. For the same molecule, the “Pre-emergence action against DIGSA in %” value in experiment [6] (dosage 20 g/ha) was determined as 80%; in experiment [6] (dosage 80 g/ha) it was 100%. Besides, the “Post-emergence action against ABUTH in %” value in experiment [7] (dosage 20 g/ha) worked out at 80%. The “Post-emergence action at 20 g/ha against AMARE in %” value in experiment [8] came to 90%. Moreover, the “Post-emergence action against ECHCG in %” value in experiment [9] came to 80%. In addition, the “Post-emergence action against SETVI in %” value in experiment [10] (dosage 5 g/ha) and in experiment [10] (dosage 20 g/ha) was 80% throughout. Further, the “Post-emergence action against STEME in %” value in [11] came to 80%.
